# Assay results from US20250034216A1, “STEREOSELECTIVE COVALENT LIGANDS FOR ONCOGENIC AND IMMUNOLOGICAL PROTEINS” (The Scripps Research Institute, priority 2021, published 2025).
# Target: T1, CHUK_C406 (Homo sapiens, UniProt O15111)
# T1 construct: endogenous in cells; host or cells: 22Rv1
# T1 sequence (O15111 1-745): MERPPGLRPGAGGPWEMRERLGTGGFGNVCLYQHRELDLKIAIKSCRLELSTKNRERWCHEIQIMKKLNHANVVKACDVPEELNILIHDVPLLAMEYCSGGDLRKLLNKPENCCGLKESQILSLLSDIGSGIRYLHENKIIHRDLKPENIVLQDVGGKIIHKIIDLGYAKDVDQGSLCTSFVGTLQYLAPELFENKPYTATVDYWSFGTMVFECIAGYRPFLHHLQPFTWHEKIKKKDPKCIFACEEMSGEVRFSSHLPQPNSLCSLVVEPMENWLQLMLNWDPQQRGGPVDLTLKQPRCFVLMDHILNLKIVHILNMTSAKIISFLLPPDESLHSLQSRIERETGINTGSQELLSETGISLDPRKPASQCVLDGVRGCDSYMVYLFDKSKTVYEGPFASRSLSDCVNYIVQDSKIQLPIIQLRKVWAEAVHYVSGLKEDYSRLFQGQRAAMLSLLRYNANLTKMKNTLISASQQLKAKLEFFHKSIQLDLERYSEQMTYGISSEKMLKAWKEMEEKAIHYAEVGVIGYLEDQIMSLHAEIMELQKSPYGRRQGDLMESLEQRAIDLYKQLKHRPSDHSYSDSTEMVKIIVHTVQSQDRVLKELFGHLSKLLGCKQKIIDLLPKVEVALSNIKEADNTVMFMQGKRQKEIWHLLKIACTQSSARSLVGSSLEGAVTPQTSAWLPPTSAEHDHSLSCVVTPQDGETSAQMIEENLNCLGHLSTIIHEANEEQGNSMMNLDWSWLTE
# Experiment: IA-DTB cysteine engagement
# Assay type: binding
# Details: 22Rv1 cells, 20 μM probe, 1 h, relative to DMSO
# Outline: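 Read-out is TMT-based cysteine engagement, expressed as each reporter ion intensity divided by the average of the DMSO channels. Before that, probe-treated cell lysates were capped with IA-DTB, digested, enriched on streptavidin and TMT-tagged. PSMs with DMSO summed intensity <10,000 or DMSO CV >0.5 were excluded.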
row,Structure (SMILES),% engagement CHUK_C406
1,"C=CC(=O)N1C[C@@H](c2ccc(Br)cc2)[C@H]1C(=O)Nc1cccc2cccnc12 [MY-1A, (2S,3R)-1-acryloyl-3-(4-bromophenyl)-N-(quinolin-8-yl)azetidine-2-carboxamide]",51.5%
2,"C=CC(=O)N1C[C@H](c2ccc(Br)cc2)[C@@H]1C(=O)Nc1cccc2cccnc12 [MY-1B, (2R,3S)-1-acryloyl-3-(4-bromophenyl)-N-(quinolin-8-yl)azetidine-2-carboxamide]",28.5%
3,"C=CC(=O)N1C[C@H](c2ccc(Br)cc2)[C@H]1C(=O)Nc1cccc2cccnc12 [MY-3A, (2S,3S)-1-acryloyl-3-(4-bromophenyl)-N-(quinolin-8-yl)azetidine-2-carboxamide]",0%
4,"C=CC(=O)N1C[C@H](c2ccc(Br)cc2)[C@H]1C(=O)Nc1cccc2cccnc12 [MY-3B, (2S,3S)-1-acryloyl-3-(4-bromophenyl)-N-(quinolin-8-yl)azetidine-2-carboxamide]",97%
